# Activity calls are given as the source filed them. No cut-off for these calls is given here.
# Key:
# [1] = Inhibition of pyruvate carboxylase in human HCCLM3 cells measured upto 24 hrs by PC assay kit; assay type: cell-based
# [2] = Inhibition of pyruvate carboxylase in human HCCLM3 cell lysate measured upto 24 hrs by PC assay kit; assay type: subcellular
# HepG2 [3] = test: Antiproliferative activity against human HepG2 cells assessed as inhibition of cell growth measured after 48 hrs by MTT assay; assay type: functional, cell-based; conditions: HepG2, 48 h
# [4] = Antiproliferative activity against human HCCLM3 cells assessed as inhibition of cell growth measured after 48 hrs by MTT assay; assay type: functional, cell-based; conditions: HCCLM3, 48 h
# [5] = Competitive inhibition of pyruvate carboxylase (unknown origin) assessed as inhibition constant at varying concentrations of ATP; set-up: species or system Homo sapiens
# [6] = Non-competitive inhibition of pyruvate carboxylase (unknown origin); set-up: species or system Homo sapiens
# HepG2 [7] = test: Cytotoxicity against human HepG2 cells assessed as cell viability at 8 nM incubated for 48 hrs by MTT assay; assay type: functional, cell-based
# HepG2 [8] = test: Cytotoxicity against human HepG2 cells assessed as cell viability at 1 to 4 nM incubated for 2 hrs by MTT assay; assay type: functional, cell-based; conditions: dose 1-4 nM
# HepG2 [9] = test: Cytotoxicity against human HepG2 cells assessed as cell viability at 62.5 to 250 nM preincubated for 48 hrs by MTT assay; assay type: functional, cell-based; conditions: dose 62.5-250 nM
# [10] = Inhibition of pyruvate carboxylase in human HepG2 cell lysate measured upto 24 hrs by PC assay kit; assay type: subcellular
# [11] = Inhibition of pyruvate carboxylase in human HepG2 cells measured upto 24 hrs by PC assay kit; assay type: cell-based
# HepG2 [12] = test: Competitive inhibition of recombinant pyruvate carboxylase in human HepG2 cell lysate in presence of Erianin at 20 uM for 120 mins followed by irradiation of 365 nm UV light for 15 min by Native -PAGE analysis; assay type: subcellular
SMILES,IC50 [2] [nM],IC50 (HepG2 [3]) [nM],IC50 [4] [nM],other results
COc1cc(CCc2cc(OC)c(O)c(OC)c2)ccc1O [MOSCATILIN],191,3020,2090,IC50 [1]: 34 nM
COc1cc(O[C@@H]2O[C@H](CO)[C@@H](O)[C@H](O)[C@H]2O)cc2c1-c1c(O)cccc1[C@H](O)C2,> 50000,> 100000,> 100000,–
COc1cc(O)cc2c1-c1c(O)cccc1C[C@@H]2O,> 50000,> 100000,> 100000,–
COc1cc(O)cc2c1-c1c(O)cc(O)cc1[C@@H](O)C2,> 50000,> 100000,> 100000,–
OC[C@H]1O[C@@H](Oc2cccc3c2-c2c(O)cc(O)cc2C[C@H]3O)[C@H](O)[C@@H](O)[C@@H]1O,> 50000,> 6420,> 100000,–
N[C@@H](CC(=O)O)C(=O)O [ASPARTIC ACID],–,–,–,Ki [5]: 700 nM
COc1cc(O)cc2c1-c1c(O)cccc1[C@@H](O)C2,264,2580,> 100000,IC50 [1]: 47 nM
CCCCCCCCOC(=O)c1cc(O)c(O)c(O)c1 [OCTYL_GALLATE],–,–,–,Ki [6]: 700 nM
COc1cc(O[C@@H]2O[C@H](CO)[C@@H](O)[C@H](O)[C@H]2O)cc2ccc3cccc(O)c3c12,65,2660,29900,IC50 [1]: 97 nM
COc1ccc(CC(CCNC(=O)[C@H](CCCCNC(=O)CCCC[C@@H]2SC[C@@H]3NC(=O)N[C@@H]32)NC(=O)CCC2(C)N=N2)c2cc(OC)c(OC)c(OC)c2)cc1O (some centres not stated),–,–,–,Activity (HepG2 [7]): inactive
COc1ccc(CCc2cc(OC)c(OC)c(OC)c2OCCOC(=O)CCCCCNC(=O)CCCC[C@@H]2SC[C@@H]3NC(=O)N[C@@H]32)cc1O,–,–,–,Activity (HepG2 [8]): inactive
COc1cc(O)cc2c1-c1c(O)cc(O)cc1C[C@@H]2O,> 50000,> 100000,> 100000,–
COc1ccc(CC(CCNC(=O)[C@H](CCCCNC(=O)CCCC[C@@H]2SC[C@@H]3NC(=O)N[C@@H]32)NC(=O)c2ccc(N=[N+]=[N-])cc2)c2cc(OC)c(OC)c(OC)c2)cc1O (some centres not stated),–,–,–,Activity (HepG2 [7]): inactive
COc1ccc(CC(CCNC(=O)[C@H](CCCCNC(=O)CCC2(C)N=N2)NC(=O)CCCC[C@@H]2SC[C@@H]3NC(=O)N[C@@H]32)c2cc(OC)c(OC)c(OC)c2)cc1O (some centres not stated),–,–,–,Activity (HepG2 [7]): inactive
COc1ccc(CC(O)c2cc(OC)c(OC)c(OC)c2)cc1O (configuration not stated),–,–,–,Activity (HepG2 [9]): Active
COc1cc(O)cc2c1-c1c(O)cccc1CC2 [HIRCINOL],> 50000,> 100000,> 100000,–
O=C(O)CC(=O)C(=O)O [OXALOACETATE],88.8,–,–,IC50 [10]: 88.8 nM; IC50 [1]: 100 nM; IC50 [11]: 100 nM
COc1ccc(CC(CCNC(=O)COCCOCCOCCNC(=O)[C@H](CCCCNC(=O)CCCC[C@@H]2SC[C@@H]3NC(=O)N[C@@H]32)NC(=O)c2ccc(N=[N+]=[N-])cc2)c2cc(OC)c(OC)c(OC)c2)cc1O (some centres not stated),–,–,–,Activity (HepG2 [7]): inactive
COc1ccc(CC(CCNC(=O)COCCOCCOCCNC(=O)[C@H](CCCCNC(=O)CCCC[C@@H]2SC[C@@H]3NC(=O)N[C@@H]32)NC(=O)CCC2(C)N=N2)c2cc(OC)c(OC)c(OC)c2)cc1O (some centres not stated),–,–,–,Activity (HepG2 [7]): inactive
COc1cc(O)c2c(c1)CCc1cccc(O)c1-2,204,1740,8540,IC50 [1]: 104 nM
COc1ccc(CC(CCOC(=O)CCCCCNC(=O)CCCC[C@@H]2SC[C@@H]3NC(=O)N[C@@H]32)c2cc(OC)c(OC)c(OC)c2)cc1O (some centres not stated),–,–,–,Activity (HepG2 [8]): inactive
COc1cc(CCc2cc(O)c(OC)c(OC)c2)ccc1O,> 50000,1090,> 100000,–
COc1cc(O)cc(CCc2ccc(OC)c(O)c2)c1,> 50000,> 100000,> 100000,–
COc1ccc(/C=C/c2cc(O)cc(O[C@@H]3O[C@H](CO)[C@@H](O)[C@H](O)[C@H]3O)c2)cc1O [RHAPONTIN],> 50000,> 100000,> 100000,–
COc1ccc(CC(CCNC(=O)[C@H](CCCCNC(=O)c2ccc(N=[N+]=[N-])cc2)NC(=O)CCCC[C@@H]2SC[C@@H]3NC(=O)N[C@@H]32)c2cc(OC)c(OC)c(OC)c2)cc1O (some centres not stated),–,–,–,Activity (HepG2 [7]): inactive
COc1ccc(CC(CCO)c2cc(OC)c(OC)c(OC)c2)cc1O (configuration not stated),–,–,–,Activity (HepG2 [7]): inactive; Activity (HepG2 [9]): Active
COc1ccc(CC(CCNC(=O)[C@H](CCCCNC(=O)CCC2(C)N=N2)N=[N+]=[N-])c2cc(OC)c(OC)c(OC)c2)cc1O (some centres not stated),–,–,–,inhibition (HepG2 [12]): Active
COc1cc(O)cc(CCc2ccc(O)c(OC)c2)c1 [GIGANTOL],125,1880,57900,IC50 [1]: > 50000 nM
COc1ccc(CC(CCNC(=O)CNC(=O)[C@H](CCCCNC(=O)CCCC[C@@H]2SC[C@@H]3NC(=O)N[C@@H]32)NC(=O)c2ccc(N=[N+]=[N-])cc2)c2cc(OC)c(OC)c(OC)c2)cc1O (some centres not stated),–,–,–,Activity (HepG2 [7]): inactive
Nc1ncnc2c1ncn2[C@@H]1O[C@@H]2CO[P@@](=O)(O)O[C@H]3[C@@H](O)[C@H](n4cnc5c(N)ncnc54)O[C@@H]3CO[P@@](=O)(O)O[C@H]2[C@H]1O,–,–,–,Ki [6]: 700 nM
